Assay results: patent publication US4898868A, “3-demethyl-4-fluoromevalonic acid derivatives, a process for the preparation thereof, pharmaceutical products based on these compounds, the use thereof, and intermediates” (Hoechst Aktiengesellschaft, priority 1987, dated 1990)
pIC50: −log10 of the molar value.

Legend:
[1] = system: cholesterol biosynthesis in HEP G2 cells; test: inhibition of cholesterol biosynthesis in HEP G2 cell cultures by incorporation of 14C-precursor (14C-acetate) in cholesterol; format: cell-based; settings: Homo sapiens, HepG2, 1 hour preincubation, 3 hours with 14C-acetate
Protocol: In addition, the inhibition of cholesterol biosynthesis in cell cultures was tested with selected compounds by the incorporation of ^14 C-precursor in cholesterol.
Monolayers of HEP G2 cells in Lipoprotein-free nutrient medium were incubated with various concentrations of the test substances for 1 hour. After addition of the ^14 C-labeled precursor sodium ^14 C-acetate, the incubation was continued for 3 hours. Then ^3 H-cholesterol was added as internal standard, and some of the cells were hydrolyzed with alkali. The lipids were extracted from the hydrolyzed cells using chloroform/methanol. Carrier cholesterol was added to this lipid mixture which was then subjected to preparative thin-layer chromatography, the cholesterol band was visualized with iodine vapor and then isolated, and the amount of ^14 C-cholesterol formed from the ^14 C-precursor was determined by scintigraphy. Cellular protein was determined in an aliquot of the cells, so that it is possible to calculate the amount of ^14 C-cholesterol formed from the ^14 C-precursor per mg of cellular protein in unit time. The solvent control is used for comparison with the inhibitory effect of an added test product, so that the inhibition of cholesterol biosynthesis at a particular molar concentration of the test product in the medium can be stated. The absence of cell damage due to the action of the products was confirmed in an aliquot of the cell culture by the morphology (light microscope). The IC50 values of the test products are stated in mol/l (in Table II), and their relative potencies are compared with mevinolin sodium salt and mevinolin lactone (comparison of the IC50 values).

liver enzyme levels = liver enzyme levels in the rabbit test; format: in vivo; settings: 10 mg/kg/day by gavage; rabbits
Protocol: (§1) The cholesterol-lowering efficacy was investigated in the following test on rabbits Normolipidemic male New Zealand rabbits (weight 3-3.5 kg, 4-6 animals per test group) received the test compounds suspended in a 1% strength aqueous carboxymethylcellulose solution (®Tylose) by gavage each day in the morning; the control group received only Tylose solution. Venous blood was taken every 3 to 4 days 20 hours after the oral administration of the solutions. The total cholesterol content in these samples was determined enzymatically using the Boehringer Mannheim assay kit (CHOD-PAP-high performance method). The serum cholesterol level in the group treated with test compounds was compared with that in the control group. The treatment period was followed by a period in which the test compounds were no longer administered.
The serum cholesterol levels returned to their initial value within 3 days after discontinuation of the product (after 10 days).

total serum cholesterol = test: cholesterol-lowering efficacy in normolipidemic male New Zealand rabbits; format: in vivo, rabbit
Protocol: as §1

HMG-CoA reductase [2] = biological target: T1, HMG-CoA reductase (Rattus norvegicus, UniProt P51639); test: inhibition of HMG-CoA reductase activity on solubilized enzyme preparations from rat liver microsomes; format: biochemical; settings: solubilized rat liver microsomal enzyme; mean of 3 parallel samples; optically pure compounds
T1 sequence (P51639 1-887): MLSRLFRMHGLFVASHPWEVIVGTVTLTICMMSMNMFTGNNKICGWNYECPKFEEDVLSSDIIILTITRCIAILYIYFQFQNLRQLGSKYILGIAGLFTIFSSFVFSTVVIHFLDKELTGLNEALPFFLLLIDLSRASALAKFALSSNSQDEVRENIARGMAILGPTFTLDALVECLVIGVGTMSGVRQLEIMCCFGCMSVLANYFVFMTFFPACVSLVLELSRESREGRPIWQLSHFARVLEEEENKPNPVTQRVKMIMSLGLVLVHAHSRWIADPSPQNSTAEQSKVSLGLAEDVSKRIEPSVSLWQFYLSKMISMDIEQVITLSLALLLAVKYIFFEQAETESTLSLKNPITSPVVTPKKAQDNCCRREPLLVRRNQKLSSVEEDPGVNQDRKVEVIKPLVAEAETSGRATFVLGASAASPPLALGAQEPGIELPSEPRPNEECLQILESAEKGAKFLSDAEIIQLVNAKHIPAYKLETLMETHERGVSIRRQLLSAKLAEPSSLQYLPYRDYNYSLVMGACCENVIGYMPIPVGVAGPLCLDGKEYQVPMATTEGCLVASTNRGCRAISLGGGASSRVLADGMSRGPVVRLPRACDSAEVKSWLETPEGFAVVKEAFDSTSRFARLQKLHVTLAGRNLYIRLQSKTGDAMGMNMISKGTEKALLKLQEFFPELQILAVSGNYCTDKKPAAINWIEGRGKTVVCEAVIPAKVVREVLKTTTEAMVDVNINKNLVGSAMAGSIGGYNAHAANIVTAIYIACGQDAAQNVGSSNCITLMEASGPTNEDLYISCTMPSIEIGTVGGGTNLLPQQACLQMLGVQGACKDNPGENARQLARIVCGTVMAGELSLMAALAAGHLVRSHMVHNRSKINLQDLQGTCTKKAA

HMG-CoA reductase [3] = settings: Endo et al. 1976; Brown et al. 1976; cited from earlier work

SMILES	pIC50 [1]	pIC50 (HMG-CoA reductase [2])	other results
CC(C)c1nc(-c2ccccc2)cc(-c2ccc(F)cc2)c1/C=C/[C@H]1OC(=O)C[C@H](O)[C@H]1F [Example 34, 3(S),5(R)-Dihydorxy-4(R)-fluoro-7-(2-isopropyl-4-parafluorophenyl-6-phenyl-3-pyridyl)hept-6E-enoic acid lactone]	6.96	–	changes in the liver enzyme levels (liver enzyme levels): without eliciting abnormal or pathological changes in the liver enzyme levels; time within which the 40% lowering of total cholesterol was reached (total serum cholesterol; 10 mg/kg/day by gavage): ≤ 3 days; lowering of total cholesterol (total serum cholesterol; 10 mg/kg/day by gavage in 1% carboxymethylcellulose, within 3 days, vs control group): 40%; course of total cholesterol lowering during administration (total serum cholesterol; 10 mg/kg/day by gavage, 10 days): remained constant throughout the administration; time for serum cholesterol levels to return to initial value after discontinuation (total serum cholesterol; 10 mg/kg/day by gavage, discontinuation after 10 days): ≤ 3 days
CCCCc1cc(Cl)cc(Cl)c1/C=C/[C@H]1OC(=O)C[C@H](O)[C@H]1F [Example 18, 7-(2-n-Butyl-4,6-dichlorophenyl)-3(S),5(R)-dihydroxy-4(R)-fluoro-E-hept-6-enoic acid lactone]	6.49	7.49	–
Cc1cc(C)c(/C=C/[C@@H](O)[C@H](F)[C@@H](O)CC(=O)O)c(-c2ccc(F)cc2)c1	–	7.01	–
CC(C)c1nc(-c2ccccc2)cc(-c2ccc(F)cc2)c1/C=C/[C@@H](O)[C@H](F)[C@@H](O)CC(=O)O	–	8.07	–
CC[C@H](C)C(=O)O[C@H]1CCC=C2C=C[C@H](C)[C@H](CC[C@@H]3C[C@@H](O)CC(=O)O3)[C@H]21 [compactin]	–	–	inhibition of HMG-CoA reductase (in words) (HMG-CoA reductase [3]): potent competitive inhibitor of HMG-CoA reductase
CC(C)c1nc(-c2ccccc2)cc(-c2ccc(F)cc2)c1CC[C@@H](O)[C@@H](F)[C@@H](O)CC(=O)O	–	7.70	–
CC(C)c1cc(-c2ccccc2)cc(-c2ccc(F)cc2)c1/C=C/[C@@H](O)[C@H](F)[C@@H](O)CC(=O)O	–	8.20	–
CC(C)c1nc(-c2ccccc2)nc(-c2ccc(F)cc2)c1/C=C/[C@H]1OC(=O)C[C@H](O)[C@H]1F [Example 38, 3(S),5(R)-dihydroxy-4(R)-fluoro-7-[6-parafluorophenyl-4-isopropyl-2-phenyl-1,3-diazin-5-yl]hept-6E-enoic acid lactone]	6.60	–	–
CC(C)c1nc(-c2ccccc2)nc(-c2ccc(F)cc2)c1/C=C/[C@@H](O)[C@H](F)[C@@H](O)CC(=O)O	–	7.44	–
O=C1C[C@H](O)[C@@H](F)[C@@H](CSc2c(Cl)cc(Cl)cc2C(c2ccc(F)cc2)c2ccc(F)cc2)O1 [Example 12, 6-(2,4-Dichloro-6-(bisparafluorophenylmethyl)phenylthio)-3(R),5(S)-dihydroxy-4(R)-fluorohexanoic acid lactone]	5.26	5.70	–
